Here are results for one compound from patent US11207289B2, “Use of benzofuran lignans to induce IL-25 expression and suppress mammary tumor metastasis” (ACADEMIA SINICA, priority 2016, dated 2021).

One data set has as its system MDA-MB-231-Luc2 cells. Description: MDA-MD-231-Luc2 tumor resection model in nude mice: metastasis and survival. The data set is classed as in vivo. Conditions: Q2-3 100 μg/kg, DT 5 mg/kg.
In the next data set the test system is Jurkat cells. Conditions: cited from earlier work.
Data set [1] is described as follows: MTT assay, cytotoxic effect on M10. The data set is classed as cell-based. Conditions: human, M10 cells (normal human mammary epithelial cell line). As to the method: (§1) M10, WI38, SKBR3, and MDA-MB-231 cells (1×10^5 cells/ml) dispensed in 96-well plates were incubated with vehicle or test compounds (Q2-3) for 24 h or 72 h in corresponding basal medium in a 5% CO2 incubator. To evaluate the effect of secreted IL-25 from Q2-3-treated fibroblasts on growth activity of mammary tumor cells, 4T1 and MDA-MB-231 cells (1×10^4 cells/ml) dispensed in 96-well plates were incubated with control medium or different fibroblast conditioned media (200 μl/ml) which was changed daily for 5 days. All treatments were performed in triplicate cell cultures. The growth activity of cells was assayed using a 3-(4, 5-dimethythiazol-2-yl)-2, 5-diphenyl tetrazolium bromide (MTT; Sigma-Aldrich) colorimetric method. The absorbance at 570 nm (A570) was measured using a multiwall scanning spectrophotometer.
FIG. 1 is a schematic depiction of cytotoxic effects of dihydrobenzofuran lignan (Q2-3) on breast tumor cells. (a): Scheme for synthesis of Q2-3 (methyl (E)-3-[2-(3,4-dihydroxyphenyl)-7-hydroxy-3-methoxycarbonyl-2,3-dihydro-1-benzofuran-5yl]prop-2-enoate) from two caffeic acid methyl ester molecules. […] The beginning cytotoxic dosage of Q2-3 was detected at 0.3 μM, with >50% kill rate on SKBR3 and MDA-MB-231 cells. […]
Background: Formazan colour is commonly taken as a measure of viable cells.

The next data set relates to mouse IL-25. The experiment in a line: 3-D culture, western blot of IL-25 in 3T3 fibroblasts and 3T3-CM. Type of data set: cell-based. How it is done:
(§2) To mimic the tumor microenvironment, a 3-dimensional (3-D) co-culture system was employed for the maintenance of mammary tumor cells and tumor-associated fibroblasts in adjacent collagen gels as reported in Rajan et al., Nature protocols, 1, 2753-2758 (2006). More specifically, rat tail collagen solution dissolved in acetic acid was neutralized by 1 N NaOH and then mixed with 10×PBS at 4° C. in a ratio of 9:1. To construct solid tumor-like cell mass, mouse (4T1 or TS/A cells) or human (MCF-7 or MDA-MB-231 cells) mammary tumor cells in each correspondent culture medium (1×10^6 cells/ml) were mixed with 4 mg/ml collagen solution in a ratio of 1:1. Four drops of collagen-tumor cell mixture ([…]) were immediately and separately loaded on culture substratum in each well of a 6-well plate. The plates were then turned-over and kept in CO2 incubator at 37° C. for collagen gelation. […]
(§3) To pull down and deplete IL-25 protein molecules in 3T3 or MDA-MB-231 cell conditioned media, the Dynabeads antibody coupling kit (Life Technology; 14311D) was used according to the manufacturer's recommendations, yielding 10 mg/ml anti-IL25 antibody (ProteinTech, Chicago, Ill.)-coupled beads. […] The antibody-pulled down proteins from 3T3-CM, NHDF-CM or WI38-CM, were detected for the content of secreted IL-25 protein in each conditioned medium using western blot analysis. […]

Another data set concerns MDA-MB-231 cells. The experiment in a line: MTT assay, cytotoxic effect on MDA-MB-231. The data set is classed as cell-based, human. As to the method: as §1
(§4) FIG. 1 is a schematic depiction of cytotoxic effects of dihydrobenzofuran lignan (Q2-3) on breast tumor cells. (a): Scheme for synthesis of Q2-3 (methyl (E)-3-[2-(3,4-dihydroxyphenyl)-7-hydroxy-3-methoxycarbonyl-2,3-dihydro-1-benzofuran-5yl]prop-2-enoate) from two caffeic acid methyl ester molecules. (b) and (c): MTT assays for cytotoxic effect of Q2-3 on SKBR3 (ER^−Her^+ human breast cancer cell line), MDA-MB-231 (ER^−Her^− human breast cancer cell line), M10 (human normal epithelial cell line) and WI38 (human lung fibroblast cell line). 2×10^4 cells were seeded and compared for their growth activity after treatment with Q2-3 for 24 or 72 h. The beginning cytotoxic dosage of Q2-3 was detected at 0.3 μM, with >50% kill rate on SKBR3 and MDA-MB-231 cells.
(§5) The effects of Q2-3 on cell viability were tested on four different cell lines, i.e., normal human mammary epithelial (M10), normal human […] (WI38), and two human mammary tumor cells (SKBR3 and MDA-MB-231), by treating cells with Q2-3 at various concentrations for 24 h (FIG. 1b) and 72 h (FIG. 1c).

Another data set relates to human IL-25. The experiment in a line: 3-D culture, western blot of IL-25 in WI38 fibroblasts and WI38-CM. Type of data set: cell-based. How it is done:
as §2, §3

The subject of a further data set is SKBR3 cells. The experiment in a line: MTT assay, cytotoxic effect on SKBR3. Type of data set: cell-based, human. How it is done: as §1, §4, §5
Setting [2] is: 3-D culture, treatment 24 h or 72 h.

As usually defined, the viability is a per cent measure of how many cells are alive, often set against a control. The term inhibition denotes the relative decrease from the control value, in per cent.

Each structure is given as a SMILES string.

As to `COC(=O)/C=C/c1cc(O)c2c(c1)C(C(=O)OC)C(c1ccc(O)c(O)c1)O2` (centres unmarked) [Q2-3, methyl(E)-3-[2-(3,4-dihydroxyphenyl)-7-hydroxy-3-methoxycarbonyl-2,3-dihydro-1-benzofuran-5yl]-prop-2-enoate], in the data set with MDA-MB-231-Luc2 cells, the survival rate result is given as “more effective than treatment with DT”. Besides, in the data set on MDA-MB-231-Luc2 cells (i.v. 3 weeks post tumor resection), the “anti-metastatic activity (luminescent activity of MDA-MB-231-Luc2 cells)” value is recorded as “more effective than treatment with DT”. Also, the anti-proliferation effect entry in the data set with Jurkat cells is “significant anti-proliferation effect”. For the same compound, the viability at 2 µM in data set [1] was no less than 80%. The “expression of IL-25 in mouse (3T3) fibroblasts” value in the data set on mouse IL-25 (setting [2]) is on record as “increased”. For the same compound, the “level of secreted IL-25 in fibroblast-conditioned medium vs untreated” value with mouse IL-25 (3T3-CM) and with human IL-25 (WI38-CM) was “significantly higher” in each case. In addition, the inhibition at 0.5 µM is no less than 60% in the data set on MDA-MB-231 cells (Homo sapiens, ≥0.5 μM, 24 h and 72 h, vs 0.1% DMSO control, read-out: growth inhibition); no less than 60% with SKBR3 cells (Homo sapiens, SK-BR-3, ≥0.5 μM, 24 h and 72 h, vs 0.1% DMSO control, read-out: growth inhibition). For the same compound, the kill rate in the data set on MDA-MB-231 cells (at 0.3 μM) and in the data set with SKBR3 cells (at 0.3 μM) was greater than 50% in each case. The beginning cytotoxic dosage in the data set on MDA-MB-231 cells (treatment 24 or 72 h) and in the data set with SKBR3 cells (treatment 24 or 72 h) was 0.3 µM throughout. Moreover, in the data set with human IL-25 (setting [2]), the “expression of IL-25 in human (WI38) fibroblasts” value is reported as “increased”.
